Active and inactive are the calls of the source.
Tests used:
[1] = tested on: H4; test: Luminescence Cell-Based Dose Response HTS to Identify Activators of 5'UTR Stem-Loop Driven Prion Protein mRNA Translation in H4 Neuroglioblastoma Cells. [Related pubchem assays: 1829 (Project Summary), 1814 (Primary HTS)]; type: functional; settings: Homo sapiens
[2] = Luminescence Cell-Based Dose Response to Identify Activators of 5'UTR Stem-Loop Driven Prion Protein mRNA Translation in H4-C Neuroglioblastoma Cells. [Related pubchem assays: 1829 (Project Summary), 1814 (Primary HTS)]; type: functional
[3] = Luminescence Cell-Based Dose Response to Identify Activators of Luciferase Translation or Activity in H4-C Neuroglioblastoma Cells. [Related pubchem assays: 1829 (Project Summary), 1814 (Primary HTS)]; type: functional
[4] = Luminescence Cell-Based Dose Response HTS to Identify Activators of Luciferase Translation or Activity in H4 […] Cells. [Related pubchem assays: 1829 (Project Summary), 1814 (Primary HTS)]; type: functional
[5] = Luminescence Cell-Based Dose Confirmation to Identify Activators of 5'UTR Stem-Loop Driven Alpha-Synuclein mRNA Translation in H4 Neuroglioblastoma Cells. [Related pubchem assays: 1829 (Project Summary), 1814 (Primary HTS)]; type: functional
[6] = target: T1, Heat shock factor protein 1 (Mus musculus, UniProt P38532); test: enhancement of HSF1-driven luciferase signal – cell-based, NIH3T3, luminescence, dose retest, confirmation (AID 435004); type: functional;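 further: stress induced by proteasome inhibitor MG132 added 30 min after compound; luciferase reporter driven by HSF1 response element in NIH3T3 cells; actives raise luminescence as potentiators of the MG132 stress response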
T1 sequence (P38532 whole entry): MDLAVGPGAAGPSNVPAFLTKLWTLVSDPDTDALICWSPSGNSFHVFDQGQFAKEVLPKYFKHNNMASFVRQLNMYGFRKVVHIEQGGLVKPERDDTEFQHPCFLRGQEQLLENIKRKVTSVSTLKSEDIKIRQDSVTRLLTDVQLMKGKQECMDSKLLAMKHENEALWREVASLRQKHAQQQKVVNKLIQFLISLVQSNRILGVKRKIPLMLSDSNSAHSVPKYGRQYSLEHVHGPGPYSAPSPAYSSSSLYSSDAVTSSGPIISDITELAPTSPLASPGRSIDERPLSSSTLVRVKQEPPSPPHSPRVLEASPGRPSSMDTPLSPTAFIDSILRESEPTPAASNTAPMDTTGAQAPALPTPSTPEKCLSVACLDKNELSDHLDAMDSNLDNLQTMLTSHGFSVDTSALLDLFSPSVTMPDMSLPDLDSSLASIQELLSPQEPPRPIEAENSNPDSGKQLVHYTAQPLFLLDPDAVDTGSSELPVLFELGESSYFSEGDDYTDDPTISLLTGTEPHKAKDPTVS

[7] = tested on: BJ; test: cells; type: functional, cell-based; settings: Homo sapiens
[8] = target: T2, High affinity choline transporter 1 (Homo sapiens, UniProt Q9GZV3); test: human choline transporter blockers, potency – cell-based, 5-point CRC, membrane potential dye, dose response (AID 504840); type: functional
T2 sequence (Q9GZV3 whole entry): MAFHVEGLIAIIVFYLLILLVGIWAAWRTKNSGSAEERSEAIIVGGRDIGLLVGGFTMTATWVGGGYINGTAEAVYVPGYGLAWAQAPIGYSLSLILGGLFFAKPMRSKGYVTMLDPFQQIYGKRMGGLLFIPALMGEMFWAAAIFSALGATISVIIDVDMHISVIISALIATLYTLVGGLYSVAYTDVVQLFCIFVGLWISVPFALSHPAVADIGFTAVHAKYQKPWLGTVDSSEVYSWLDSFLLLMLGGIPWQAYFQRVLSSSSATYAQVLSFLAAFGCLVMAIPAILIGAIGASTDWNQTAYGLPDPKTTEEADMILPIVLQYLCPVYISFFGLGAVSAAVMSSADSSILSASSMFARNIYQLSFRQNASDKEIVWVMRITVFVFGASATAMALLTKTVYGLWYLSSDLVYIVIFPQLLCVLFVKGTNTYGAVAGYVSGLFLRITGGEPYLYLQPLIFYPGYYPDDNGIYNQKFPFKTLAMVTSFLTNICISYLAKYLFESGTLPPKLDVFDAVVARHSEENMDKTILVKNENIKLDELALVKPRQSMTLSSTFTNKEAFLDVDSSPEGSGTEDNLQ

[9] = fluconazole-exposed Candida albicans growth modulators – fluorescence, retest, confirmation (AID 2467); type: functional, cell-based
[10] = NIH-3T3 fibroblast cytotoxicity, dose response, cytotoxicity control, cell-based, fluorescence, Alamar Blue, secondary assay (AID 2327); type: functional;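 further: NIH-3T3 mouse fibroblasts cultured with fluconazole at 8 µg/mL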
[11] = target: Heat shock protein HSP 90-alpha (Homo sapiens, UniProt P07900); type: functional, organism-based
[12] = tested on: BJ; test: BJ-TERT-LT-ST fibroblast viability loss – cell-based, RAS-independent, luminescence, dose response (AID 1935); type: functional; settings: Homo sapiens;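 further: BJ fibroblasts immortalized with TERT plus LT and ST oncogenes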
[13] = target: Galanin receptor type 2 (Homo sapiens, UniProt O43603); test: Dose Response cell-based high-throughput screening assay to identify antagonists of galanin receptor 2 (GALR2). [Related pubchem assays: 828, 866 ]; type: functional
Chain of Galanin receptor type 2 (O43603 whole entry): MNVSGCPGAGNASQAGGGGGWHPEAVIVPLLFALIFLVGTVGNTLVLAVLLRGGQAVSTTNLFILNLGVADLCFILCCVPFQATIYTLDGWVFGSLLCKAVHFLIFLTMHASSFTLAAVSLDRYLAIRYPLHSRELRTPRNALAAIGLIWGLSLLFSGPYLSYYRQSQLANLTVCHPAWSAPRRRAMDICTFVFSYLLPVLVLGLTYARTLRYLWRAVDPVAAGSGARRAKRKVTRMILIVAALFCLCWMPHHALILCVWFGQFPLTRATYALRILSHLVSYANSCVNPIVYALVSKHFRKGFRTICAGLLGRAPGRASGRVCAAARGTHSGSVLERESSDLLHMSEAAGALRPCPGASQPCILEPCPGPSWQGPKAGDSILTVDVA

[14] = target: T3, Microphthalmia-associated transcription factor (Homo sapiens, UniProt O75030); test: reducers of TRPM1 reporter luminescence, concentration series – cell-based, SK-MEL-5, cherry-picked, set 3, MITF inhibitor project, dose response (AID 493073); type: functional;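 further: SK-MEL-5 melanoma cells with luciferase driven by the MITF target TRPM1 promoter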
T3 sequence (O75030 whole entry): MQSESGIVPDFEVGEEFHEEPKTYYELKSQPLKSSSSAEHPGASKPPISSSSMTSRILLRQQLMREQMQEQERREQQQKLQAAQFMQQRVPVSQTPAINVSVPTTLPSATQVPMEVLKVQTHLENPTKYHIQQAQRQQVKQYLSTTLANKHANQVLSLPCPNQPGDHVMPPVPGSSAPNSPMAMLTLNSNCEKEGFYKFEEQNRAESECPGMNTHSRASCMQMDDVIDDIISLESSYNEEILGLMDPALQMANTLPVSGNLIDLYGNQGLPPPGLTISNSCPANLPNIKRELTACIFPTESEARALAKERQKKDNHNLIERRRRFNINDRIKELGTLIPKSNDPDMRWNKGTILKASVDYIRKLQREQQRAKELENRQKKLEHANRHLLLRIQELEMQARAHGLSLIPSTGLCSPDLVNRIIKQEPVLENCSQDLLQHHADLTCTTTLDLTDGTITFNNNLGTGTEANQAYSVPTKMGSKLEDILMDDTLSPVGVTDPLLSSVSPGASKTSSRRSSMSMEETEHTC

[15] = DRD fibroblast viability loss – cell-based, non-viral oncogenic, luminescence, dose response (AID 1934); type: functional; settings: Homo sapiens
[16] = tested on: BJ; test: BJ-TERT fibroblast viability loss – cell-based, RAS-independent, luminescence, dose response (AID 1933); type: functional; settings: Homo sapiens
[17] = target: G-protein coupled receptor 55 (Homo sapiens, UniProt Q9Y2T6); test: selective activators of receptor GPR55 – imaging, U2OS cells, beta-arrestin-GFP redistribution, primary screen (AID 1961); type: functional
Chain of G-protein coupled receptor 55 (Q9Y2T6 whole entry): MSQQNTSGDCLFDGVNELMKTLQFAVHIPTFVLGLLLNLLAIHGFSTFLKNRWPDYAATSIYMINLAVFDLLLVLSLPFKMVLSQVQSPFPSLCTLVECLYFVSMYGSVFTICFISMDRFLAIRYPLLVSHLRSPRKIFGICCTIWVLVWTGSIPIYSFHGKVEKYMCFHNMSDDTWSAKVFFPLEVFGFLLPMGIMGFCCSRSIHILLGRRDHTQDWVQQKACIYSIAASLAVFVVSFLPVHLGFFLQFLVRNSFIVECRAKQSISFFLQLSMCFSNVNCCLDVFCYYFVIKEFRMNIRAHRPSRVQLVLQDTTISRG

[18] = Luminescence Cell-Based Dose Confirmation HTS to Identify Inhibitors of Platelet Dense Granule Release. [Related pubchem assays: 1663 (Primary HTS), 1678 (Summary of Project)]; type: functional
[19] = Fluorescence Cell-Based Dose Response to Identify Inhibitors of Thrombin Receptor-Activating Peptide SFLLRN-Mediated P-Selectin Induction on Platelets. [Related pubchem assays: 1663 (Primary HTS), 1889 (retest at dose ), 1891 (counterscreen), 1678 (Project Summary)]; type: functional
[20] = target: Luciferin 4-monooxygenase (Photinus pyralis, UniProt P08659); test: inhibition of purified Photinus pyralis luciferase – biochemical, luminescence, dose response (AID 1891)
Chain of Luciferin 4-monooxygenase (P08659 whole entry): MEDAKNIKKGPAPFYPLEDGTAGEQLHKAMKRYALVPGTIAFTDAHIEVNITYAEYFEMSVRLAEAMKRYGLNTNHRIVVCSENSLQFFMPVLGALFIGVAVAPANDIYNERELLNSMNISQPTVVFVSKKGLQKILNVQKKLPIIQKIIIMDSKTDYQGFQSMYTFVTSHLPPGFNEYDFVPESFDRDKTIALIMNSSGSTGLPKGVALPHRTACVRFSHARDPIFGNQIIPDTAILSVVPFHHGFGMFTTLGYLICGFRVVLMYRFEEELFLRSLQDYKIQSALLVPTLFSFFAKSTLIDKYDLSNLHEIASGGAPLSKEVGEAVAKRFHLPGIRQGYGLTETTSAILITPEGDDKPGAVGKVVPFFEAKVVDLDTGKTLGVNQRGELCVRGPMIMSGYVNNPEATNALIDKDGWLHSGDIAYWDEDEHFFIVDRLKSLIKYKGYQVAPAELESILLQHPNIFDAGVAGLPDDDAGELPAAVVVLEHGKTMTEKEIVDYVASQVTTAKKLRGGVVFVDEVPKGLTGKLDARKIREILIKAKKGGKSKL

[21] = NIH3T3 cell viability loss – ATP luminescence, mouse fibroblasts, counter-screen, dose response (AID 2010); type: functional, cell-based;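 further: cells exposed to compound for about 90 hours before reading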
[22] = Trypanosoma cruzi growth suppression in host cells – NIH3T3 host cells, beta-gal luminescence, confirmation (AID 2044); type: functional, cell-based;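 further: intracellular parasites grown in NIH/3T3 mouse fibroblasts as host cells; luminescent beta-galactosidase reporter signal from transgenic T. cruzi replicating inside host cells; inhibitors lower the luminescence signal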
[23] = cells
[24] = tested on: Vero; test: inhibition of WNV-induced cytopathic effect – cell-based, CPE readout (AID 1621); type: functional; settings: Chlorocebus sabaeus
[25] = target: Protein-tyrosine kinase 2-beta (Homo sapiens, UniProt Q14289);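 further: potency of inhibitors of PYK2 kinase phosphorylation of poly-GT substrate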
Chain of Protein-tyrosine kinase 2-beta (Q14289 whole entry): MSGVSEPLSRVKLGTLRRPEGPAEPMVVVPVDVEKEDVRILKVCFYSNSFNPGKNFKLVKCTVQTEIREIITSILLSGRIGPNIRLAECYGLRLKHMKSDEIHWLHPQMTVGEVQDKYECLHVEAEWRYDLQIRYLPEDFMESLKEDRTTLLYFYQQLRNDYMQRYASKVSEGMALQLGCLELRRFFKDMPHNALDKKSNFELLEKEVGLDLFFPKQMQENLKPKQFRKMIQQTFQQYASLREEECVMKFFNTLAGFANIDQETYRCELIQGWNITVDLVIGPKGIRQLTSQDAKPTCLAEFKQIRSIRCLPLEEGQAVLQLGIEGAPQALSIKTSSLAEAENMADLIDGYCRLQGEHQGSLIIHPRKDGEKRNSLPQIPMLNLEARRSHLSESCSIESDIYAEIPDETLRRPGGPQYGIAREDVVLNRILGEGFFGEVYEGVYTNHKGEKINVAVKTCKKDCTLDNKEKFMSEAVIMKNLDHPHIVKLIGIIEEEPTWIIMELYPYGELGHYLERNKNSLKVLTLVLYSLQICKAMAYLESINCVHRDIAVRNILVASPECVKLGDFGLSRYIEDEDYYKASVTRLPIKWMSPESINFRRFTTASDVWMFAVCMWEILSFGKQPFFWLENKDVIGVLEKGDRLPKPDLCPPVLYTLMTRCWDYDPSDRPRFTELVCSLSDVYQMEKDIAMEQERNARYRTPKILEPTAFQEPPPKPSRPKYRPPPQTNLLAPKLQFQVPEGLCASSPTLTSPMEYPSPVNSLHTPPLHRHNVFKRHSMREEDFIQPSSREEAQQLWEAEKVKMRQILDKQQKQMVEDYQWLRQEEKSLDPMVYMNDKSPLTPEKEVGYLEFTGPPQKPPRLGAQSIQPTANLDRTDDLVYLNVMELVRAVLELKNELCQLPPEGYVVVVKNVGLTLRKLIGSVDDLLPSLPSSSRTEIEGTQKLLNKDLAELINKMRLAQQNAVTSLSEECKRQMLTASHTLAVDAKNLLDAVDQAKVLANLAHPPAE

[26] = target: Peroxisome proliferator-activated receptor gamma/Nuclear receptor corepressor 2 (Homo sapiens, UniProt P37231+Q9Y618); test: Counterscreen for NR2E3 inverse agonists: TR-FRET-based biochemical high throughput dose response assay to identify inverse agonists of the interaction between peroxisome proliferator-activated receptor gamma (PPARg) and nuclear receptor co-repressor 2 (NCOR2).; type: functional
[27] = target: Photoreceptor-specific nuclear receptor (Homo sapiens, UniProt Q9Y5X4); test: ligands suppressing NR2E3 nuclear receptor activity – biochemical, TR-FRET, dose response (AID 463256); type: functional
Chain of Photoreceptor-specific nuclear receptor (Q9Y5X4 whole entry): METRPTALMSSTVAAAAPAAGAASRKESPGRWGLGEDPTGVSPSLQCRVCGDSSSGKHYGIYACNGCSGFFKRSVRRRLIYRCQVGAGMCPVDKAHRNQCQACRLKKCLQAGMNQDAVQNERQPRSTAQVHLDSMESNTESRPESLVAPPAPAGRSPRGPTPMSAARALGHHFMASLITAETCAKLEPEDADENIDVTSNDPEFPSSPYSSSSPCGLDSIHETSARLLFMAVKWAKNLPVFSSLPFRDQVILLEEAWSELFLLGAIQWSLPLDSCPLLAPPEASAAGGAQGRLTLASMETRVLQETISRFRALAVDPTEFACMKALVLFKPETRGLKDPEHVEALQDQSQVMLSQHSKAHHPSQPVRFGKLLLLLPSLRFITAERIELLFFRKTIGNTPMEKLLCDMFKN

[28] = target: T4, Sphingosine 1-phosphate receptor 4 (Homo sapiens, UniProt O95977); test: Late stage fluorescence dose response cell-based screening assay for antagonists of the Sphingosine 1-Phosphate Receptor 4 (S1P4). [Related pubchem assays: 1524 (Confirmation screen (S1P4 antagonists).), 1510 (Primary screen (S1P4 antagonists).), 1853 (Summary AID (S1P4 antagonists).), 1692 (Dose response screen (S1P4 antagonists).)]; type: functional
T4 sequence (O95977 whole entry): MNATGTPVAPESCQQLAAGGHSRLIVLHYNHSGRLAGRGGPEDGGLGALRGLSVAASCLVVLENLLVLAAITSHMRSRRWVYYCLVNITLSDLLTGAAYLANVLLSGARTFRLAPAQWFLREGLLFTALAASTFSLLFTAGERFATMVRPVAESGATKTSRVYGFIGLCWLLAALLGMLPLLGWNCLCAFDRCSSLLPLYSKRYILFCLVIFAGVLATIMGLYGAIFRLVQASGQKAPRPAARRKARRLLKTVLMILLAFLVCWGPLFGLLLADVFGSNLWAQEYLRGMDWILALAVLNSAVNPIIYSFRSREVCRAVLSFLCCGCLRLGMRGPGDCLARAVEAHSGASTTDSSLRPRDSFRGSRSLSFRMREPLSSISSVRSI

[29] = blockers of bursicon-stimulated LGR2 cAMP reporter – cell-based, HEK293, CRE-luciferase reporter, cherry pick, set 2, dose response (AID 743343); type: functional;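 further: transfected cells were stimulated with diluted bursicon conditioned medium after compound addition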
[30] = THP-1 cell cytotoxicity, dose response, cytotoxicity control for non-replicating M. tuberculosis project (AID 489025); type: functional
[31] = toxicity toward HepG2 liver cells – cell-based, plate reader, cherry-pick, antagonist series, cytotoxicity control, dose response (AID 743416); type: functional
[32] = blockade of melanocortin 4 receptor signaling – cell-based, plate reader, cherry pick, counter-screen for LGR2 antagonist project, dose response (AID 743444); type: functional;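 further: transfected HEK 293 cells stimulated with alpha-MSH peptide; potency of inhibitors of the alpha-MSH evoked signal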
[33] = Luminescent dose response cell-based high throughput screening assay for inhibitors of the Janus kinase 2 mutant JAK2V617F. [Related pubchem assays: 1446 (Primary screen.), 1521 (Confirmation assay.), 1486 (Counter screen.)]; type: functional
[34] = target: Sphingosine 1-phosphate receptor 1 (Homo sapiens, UniProt P21453); type: functional;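 further: Tango beta-arrestin reporter U2OS cells stimulated with S1P near its EC80; inhibitor potency meaning antagonism of receptor activation by the natural agonist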
Chain of Sphingosine 1-phosphate receptor 1 (P21453 whole entry): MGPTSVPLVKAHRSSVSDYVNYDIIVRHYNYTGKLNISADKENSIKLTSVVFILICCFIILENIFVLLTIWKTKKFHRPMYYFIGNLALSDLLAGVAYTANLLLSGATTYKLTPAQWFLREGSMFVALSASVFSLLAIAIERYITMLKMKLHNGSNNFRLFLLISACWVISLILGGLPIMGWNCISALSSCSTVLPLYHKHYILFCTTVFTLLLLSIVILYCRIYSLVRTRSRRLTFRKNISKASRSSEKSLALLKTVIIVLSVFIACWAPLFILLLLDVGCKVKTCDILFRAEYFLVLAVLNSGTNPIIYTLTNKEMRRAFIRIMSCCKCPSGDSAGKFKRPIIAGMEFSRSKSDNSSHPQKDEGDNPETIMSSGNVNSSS

[35] = viability loss in HEK293 cells – cell-based, plate reader, cherry-picked samples, cytotoxicity control, dose response (AID 743446); type: functional
[36] = target: T4, Sphingosine 1-phosphate receptor 4; test: Fluorescence dose response cell-based high throughput screening assay for antagonists of the Sphingosine 1-Phosphate Receptor 4 (S1P4). [Related pubchem assays: 1524 (Confirmation in triplicates.), 1510 (Primary screen.)]; type: functional
[37] = A549 cell cytotoxicity, dose response, cytotoxicity control, plate reader, cherry-pick, antagonist series (AID 743412); type: functional, cell-based
[38] = tested on: INS1; test: INS-1E survival protection against cytokine death – cell-based, luminescence, retest, dose response (AID 449756); type: functional; settings: Rattus norvegicus;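 further: cell death triggered by IL-1 beta plus TNF-alpha plus IFN-gamma mixture; protective hits raise ATP signal compared with cytokine alone wells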
[39] = reduced cellular PGC1a acetyl-lysine signal – cell-based, cherry-picked samples, dose response (AID 720514); type: functional;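 further: potency may reflect raised or lowered acetylation signal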
[40] = target: Voltage-gated inwardly rectifying potassium channel KCNH2 (Homo sapiens, UniProt Q12809); test: concentration-dependent hERG rescue from blockers – cell-based, thallium flux, dose response (AID 2121); type: ADME
Chain of Voltage-gated inwardly rectifying potassium channel KCNH2 (Q12809 whole entry): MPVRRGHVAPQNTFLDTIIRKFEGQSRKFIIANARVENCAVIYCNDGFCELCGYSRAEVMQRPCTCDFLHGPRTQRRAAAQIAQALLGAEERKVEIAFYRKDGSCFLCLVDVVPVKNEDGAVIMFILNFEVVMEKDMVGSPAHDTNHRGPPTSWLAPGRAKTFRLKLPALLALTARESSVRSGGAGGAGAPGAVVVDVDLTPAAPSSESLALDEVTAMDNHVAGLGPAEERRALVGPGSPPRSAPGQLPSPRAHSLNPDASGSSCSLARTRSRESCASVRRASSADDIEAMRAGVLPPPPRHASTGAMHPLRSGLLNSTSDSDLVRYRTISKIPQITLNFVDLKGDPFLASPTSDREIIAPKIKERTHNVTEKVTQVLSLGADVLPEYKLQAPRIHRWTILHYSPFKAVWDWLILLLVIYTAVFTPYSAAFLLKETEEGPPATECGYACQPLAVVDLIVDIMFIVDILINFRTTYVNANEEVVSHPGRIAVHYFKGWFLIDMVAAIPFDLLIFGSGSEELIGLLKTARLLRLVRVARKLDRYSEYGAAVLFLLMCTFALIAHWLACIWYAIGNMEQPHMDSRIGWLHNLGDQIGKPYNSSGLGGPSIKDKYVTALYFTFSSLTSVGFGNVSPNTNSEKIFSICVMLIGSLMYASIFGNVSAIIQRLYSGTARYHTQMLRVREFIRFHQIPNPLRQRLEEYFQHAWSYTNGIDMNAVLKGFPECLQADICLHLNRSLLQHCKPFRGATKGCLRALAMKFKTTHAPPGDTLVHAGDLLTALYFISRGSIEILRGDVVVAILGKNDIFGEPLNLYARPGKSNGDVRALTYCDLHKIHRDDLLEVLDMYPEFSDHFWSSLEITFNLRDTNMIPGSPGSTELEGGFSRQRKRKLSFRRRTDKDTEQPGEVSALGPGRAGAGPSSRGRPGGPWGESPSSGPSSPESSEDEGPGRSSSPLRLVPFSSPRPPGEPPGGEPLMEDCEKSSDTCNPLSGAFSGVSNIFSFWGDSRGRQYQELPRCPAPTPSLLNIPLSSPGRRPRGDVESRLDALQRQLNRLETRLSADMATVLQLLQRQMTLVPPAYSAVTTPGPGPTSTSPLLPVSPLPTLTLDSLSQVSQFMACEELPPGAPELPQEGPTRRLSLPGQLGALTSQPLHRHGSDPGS

Cc1ccc(C(=O)CSc2nsc(C)c2C#N)cc1
EC50 [1]: > 120 µM (not active)
EC50 [2]: 0.646 µM (active)
EC50 [3]: 1.49 µM (active)
EC50 [4]: < 0.1 µM (inconclusive)
EC50 [5]: 0.976 µM (active)

CC(=O)SC(C[N+](=O)[O-])c1cn(C(C)=O)c2ccccc12 (configuration not stated)
EC50 [6]: 6.84 µM (active)
EC50 [7]: > 150 µM (inconclusive)
IC50 [8]: 14.5 µM (active)
EC50 [9]: 19.5 µM (active)
EC50 [10]: 12.9 µM (inconclusive)
AC50 [11]: 1.48 µM (active)
EC50 [12]: 6.21 µM (inconclusive)
IC50 [13]: 14.4 µM (not active)
AC50 [14]: 3.54 µM (active)
EC50 [15]: 6.74 µM (active)
EC50 [16]: 5.02 µM (inconclusive)
EC50 [17]: > 32 µM (inactive)

COc1ccccc1C(=O)Nc1cnc(O)nc1O
EC50 [18]: 0.25 µM (active)
EC50 [19]: < 0.3 µM (active)
EC50 [20]: > 112 µM (not active)

CCN1CCN(c2ccc(S(=O)(=O)N3CCCCC3)cc2NC(=O)Cc2c(Cl)cccc2Cl)CC1
EC50 [21]: 49.2 µM (active)
EC50 [22]: < 0.1 µM (active)
EC50 [23]: 0.06 µM (active)
IC50 [24]: 27.1 µM (active)

COCCO/C(O)=C1\C(C)=NC2=C(C(=O)CC(c3cccs3)C2)C1c1ccsc1 (configuration not stated)
IC50 [25]: > 69.5 µM (not active)

Cc1ccc2[nH]c(CCN(C)C)c(CN3CCOCC3)c2c1
IC50 [26]: 10.7 µM (not active)
IC50 [27]: 6.09 µM (active)

COc1ccc([N+](=O)[O-])c(S(=O)(=O)c2ccc(Cl)cc2)n1
IC50 [8]: 11 µM (active)
IC50 [28]: 1.15 µM (not active)
AC50 [29]: 2.64 µM (active)
CC50 [30]: 38.1 µM (active)
AC50 [31]: 7.08 µM (active)
AC50 [32]: 3.78 µM (active)
AC50 [11]: 0.753 µM (active)
IC50 [33]: 0.81 µM (active)
IC50 [34]: 4.73 µM (active)
AC50 [35]: 10 µM (active)
IC50 [36]: 0.391 µM (active)
AC50 [37]: 7.69 µM (active)
AC50 [38]: 6.17 µM (active)
AC50 [39]: 8.16 µM (active)

COC(=O)c1ccc(CSc2ncnc3sc(C)c(C)c23)o1
EC50 [40]: 11.1 µM (active)

Source: ChEMBL document CHEMBL1201862, “PubChem BioAssay data set” (2004)
